Values joined by “and” are separate entries in the source; they are usually repeats but may differ in a detail not shown here. Equal values may be shown once.
Assays:
[1] = system: healthy older male volunteers; test: Study 4: proof of concept study in healthy older male volunteers (1000, 1500, 2000 mg tablets, 28 days); assay type: in vivo, human; conditions: each dose arm (1000, 1500, 2000 mg)
[2] = system: men with metastatic castration resistant prostate cancer (mCRPC); test: Study 6: secondary hormone therapy with Compound IV 125 mg, 250 mg or 500 mg in mCRPC/nmCRPC maintained on ADT; assay type: in vivo, human
Text: Compound IV, is studied (Study 6) for the proposed indication secondary hormone therapy for metastatic castration resistant prostate cancer (mCRPC), for high risk non-metastatic castration resistant prostate cancer (nmCRPC) or advanced prostate cancer at high risk of progressing to CRPC, or any combination thereof.
The effect of Compound IV as secondary hormonal therapy that reduces serum PSA and serum free testosterone levels in men with metastatic castration resistant prostate cancer maintained on androgen deprivation therapy is studied. The study assesses the effects of Compound IV on serum PSA response and serum PSA progression in men with mCRPC on ADT with LHRH agonists, LHRH antagonists, or orchidectomy. This study also assesses the VTE risk of lower doses of Compound IV. Secondary endpoints include serum free testosterone levels, adrenal gland androgen precursor production (DHEA and DHEAS levels), progression free survival, and skeletal related events (SRE).
75 subjects with castration resistant prostate cancer patients with radiographic evidence of metastatic disease (T any-N any-M1) are enrolled in the study. These subjects have a median life expectancy of less than 20 months, i.e. more serious disease than the other subjects with advanced prostate cancer enrolled in the previous studies. All subjects have been previously treated with androgen deprivation therapy (ADT), have responded to the ADT and currently have a serum PSA >2 ng/mL or >2 ng/mL and representing a 25% increase above the nadir achieved on the ADT. Subjects are maintained on ADT throughout the study.
Each subject receives daily doses of 125 mg Compound IV, 250 mg Compound IV, or 500 mg Compound IV administered orally, until their serum PSA increases at least 25% and 2 ng/mL from the nadir at two successive serum PSA assessments after initiation of treatment with Compound IV.
Enrollment into this study is staggered by 1 cycle (30 days) such that the first 25 subjects are enrolled into the 125 mg Compound IV dose arm. These subjects are evaluated for incidence of venous thromboembolic events (VTE). When the last subject in the 125 mg Compound IV dose arm has completed 1 cycle of therapy (30 days) in this dose arm and there is an acceptable incidence rate of VTE in this dose arm at that time (less than 3), enrollment is commenced in the 250 mg Compound IV dose arm. These subjects are evaluated for the incidence of VTE. When all 25 subjects in the 250 mg Compound IV dose arm have completed 1 cycle of therapy (30 days) in this dose arm and there is an acceptable incidence rate of VTE in this dose arm at that time (less than 3), enrollment into the 500 mg Compound IV dose arm (25 subjects) is commenced.
125 mg Compound IV, 250 mg Compound IV, or 500 mg Compound IV will be administered daily to all subjects in the study until they have developed serum PSA progression (serum PSA has increased at least 25% and 2 ng/mL above the nadir at two successive sample times after initiation of treatment with Compound IV).
Assessments of serum total testosterone, serum free testosterone, serum SHGB and serum PSA concentrations are made on Days 15, 30, and every 30 days until their serum PSA has increased at least 25% and 2 ng/mL from the nadir at two successive sample times after initiation of treatment with Compound IV. Bone turnover markers are assessed at baseline (Day 1), Day 90, and End of Study.
The incidence and frequency of hot flashes is assessed at baseline (Day 1), Day 30, Day 60, Day 90 and End of Study.
The proportion of subjects with a 50% decline from baseline in serum PSA (confirmed by a second serum PSA assessment 30 days later) by Day 90 (with follow up confirmation by Day 120) […]

[3] = 250 mg, 11 evaluable patients (FIG. 61)
[4] = Study 6, 125 mg, 20 evaluable patients
[5] = Study 6, 125 mg, 21 evaluable patients
[6] = Study 6, 125 mg, mCRPC on ADT, Day 90, N 20
[7] = Study 6, 125 mg, mCRPC on ADT, N 20
[8] = Study 6, 125 mg, patients with hot flashes at baseline
[9] = Study 6, 125 mg, patients with no hot flashes at baseline

`O=C(c1ccc(O)c(F)c1)N(c1ccc(O)cc1)c1ccc(F)cc1` [Compound IV, 3-fluoro-N-(4-fluorophenyl)-4-hydroxy-N-(4-hydroxyphenyl)benzamide] was tested, and the “SHBG increase over baseline” value [1] was 300-600%, the “Deep vein thrombosis events (DVTs)” value ([2]; 125 mg) was “No deep vein thrombosis events (DVTs) have been reported” and the “Evaluable patients with improvements in hot flash frequency or severity” value ([2]; 125 mg) was 33%. The “Evaluable patients with reductions in CTX” value ([2]; 125 mg) was 60%, the “Evaluable patients with reductions in bone specific alkaline phosphatase” value ([2]; 125 mg) was 52% and the “Men that do not respond and have continually increasing PSA levels” value ([2]; 125 mg) was 6. The “Patients reporting a PSA decrease in response to therapy” value ([2]; 125 mg) was 24 patients, the “Patients with maximum free T reductions greater than 50% from baseline” value ([2]; 125 mg) was 24 of 30 and the “Patients with reductions in free T” value ([2]; 125 mg) was 27 of 30. The “SAEs or VTEs” value ([2]; 125 mg) was “no SAEs or VTEs”, the “Subjects with decreased collagen C-telopeptide (CTX)” value ([2]; 125 mg) was 69% and the “Subjects with ≧50% decrease in PSA level” value ([2]; 125 mg) was 11%. The “Patients with free T >0.7 pg/ml (Day 1) that go to <0.7 pg/mL” value ([2]; 125 mg cohort) was 22/25, the “Patients with total T >20 ng/dL (Day 1) that do NOT go to <20 ng/dL” value ([2]; 125 mg cohort) was 0/3 and the “Patients with total T >20 ng/dL (Day 1) that go to <20 ng/dL” value ([2]; 125 mg cohort) was 3/3. The “Patients with improvement in both frequency and severity of hot flashes” value ([2]; 125 mg, 18 evaluable patients) was 22%, the “Patients with improvement of frequency or severity and stability of the other measurement” value ([2]; 125 mg, 18 evaluable patients) was 11% and the “Patients with stability in frequency and severity of hot flashes” value ([2]; 125 mg, 18 evaluable patients) was 50%. For the same molecule, the “Patients with worsening of either frequency or severity of hot flashes” value ([2]; 125 mg, 18 evaluable patients) was 17%, the “SHBG level relative to Day 0 in all treated men” value ([2]; 125 mg, at least 90 days, initial 15 patients) was ≥ 150 % of Day 0 and the “Men with suboptimal castration (free T>0.7 pg/ml) that became optimally castrated” value ([2]; 125 mg, by day 90, initial 15 patients) was 91%. For the same molecule, the “Treated men with improvement and stability of bone turnover markers” value ([2]; 125 mg, initial group, 11 evaluable subjects) was “at least 73%”, the “Patients with >45% decrease in PSA” value ([2]; 125 mg, prior to day 90, initial 15 patients) was 4/15 and 4 and the “Subjects with any level of PSA decline” value ([2]; 250 mg) was 85%. For the same molecule, the “Subjects with decreased collagen C-telopeptide (CTX)” value ([2]; 250 mg) was 81%, the “Subjects with ≧50% decrease in PSA level” value ([2]; 250 mg) was 30% and the “Patients with free T >0.7 pg/ml (Day 1) that go to <0.7 pg/mL” value ([2]; 250 mg cohort) was 9/10. For the same molecule, the “Patients with total T >20 ng/dL (Day 1) that do NOT go to <20 ng/dL” value ([2]; 250 mg cohort) was 0/4, the “Patients with total T >20 ng/dL (Day 1) that go to <20 ng/dL” value ([2]; 250 mg cohort) was 4/4 and the “Reported drug related serious adverse events (SAE)” value ([2]; 250 mg daily) was “one”. The “Subjects that reported adverse events (AE's)” value ([2]; 250 mg daily) was “seven”, the “Median SHBG level” value ([2]; 250 mg daily, initial 20 patients, 90 days) was 297 % of baseline and the “SAE possibly drug related” value ([2]; 250 mg daily, patient required hospitalization) was “Phlebothrombosis-Grade 3”. The “Patients stable in both hot flash measurements” value [2, 3] was 45%, the “Patients with improvement in both/either frequency and severity of hot flashes” value [2, 3] was 36% and the “Bone turnover (CTX) decreased (improved), share of subjects” value ([2]; Study 6, 125 mg cohort) was 69% are decreased. The “SHBG, median (of baseline)” value ([2]; Study 6, 125 mg cohort) was “Median - 158%”, the “PSA response: subjects with ≧50% decrease in PSA” value ([2]; Study 6, 125 mg cohort, 4/38) was 4/38 ≧ 50% (11%) and the “Hot flashes improved, in men experiencing them on Day 1” value ([2]; Study 6, 125 mg cohort, 7/24) was 7/24 improved (29%). The “Hot flashes stable, in men experiencing them on Day 1” value ([2]; Study 6, 125 mg cohort, 12/24) was 12/24 stable (50%), the “CTx decreased, # of patients (%)” value [2, 4] was 12/20 (60%) and the “CTx increased, # of patients (%)” value [2, 4] was 5/20 (25%). For the same molecule, the “CTx unchanged, # of patients (%)” value [2, 4] was 3/20 (15%), the “BSAP decreased, # of patients (%)” value [2, 5] was 11/21 (52%) and the “BSAP increased, # of patients (%)” value [2, 5] was 8/21 (38%). The “BSAP unchanged, # of patients (%)” value [2, 5] was 2/21 (10%), the “Adverse event frequency (%): Bone pain” value ([2]; Study 6, 125 mg, 34 subjects) was 3 (9%) and the “Adverse event frequency (%): Gynecomastia (grade 2)” value ([2]; Study 6, 125 mg, 34 subjects) was 4 (12%). The “Adverse event frequency (%): Gynecomastia/breast tenderness (grade 1)” value ([2]; Study 6, 125 mg, 34 subjects) was 4 (12%), the “Adverse event frequency (%): Loss of appetite” value ([2]; Study 6, 125 mg, 34 subjects) was 3 (9%) and the “Adverse event frequency (%): Nausea” value ([2]; Study 6, 125 mg, 34 subjects) was 2 (6%). For the same molecule, the “Adverse event frequency: VTE” value ([2]; Study 6, 125 mg, 34 subjects) was 0, the “Free testosterone level, mean” value [2, 6] was 0.57 pg/mL and the “Free testosterone level, median” value [2, 6] was 0.45 pg/mL. For the same molecule, the “Free testosterone, % change from baseline to Day 90, median” value [2, 7] was −57.14%, the “Free testosterone, change from baseline to Day 90, median” value [2, 7] was -0.50 pg/mL and the “Free testosterone, change from baseline to Day 90, mean” value ([2]; Study 6, 125 mg, mCRPC on ADT, N 20, P 0.0002) was -0.74 pg/mL. For the same molecule, the “Free testosterone, % change from baseline to Day 90, mean” value ([2]; Study 6, 125 mg, mCRPC on ADT, N 20, P 0.0035) was −34.59%, the “Change in hot flashes (frequency, severity): (Better, Better), % of patients” value [2, 8] was 18.75% and the “Change in hot flashes (frequency, severity): (Better, Stable), % of patients” value [2, 8] was 18.75%. For the same molecule, the “Change in hot flashes (frequency, severity): (Better, Worse), % of patients” value [2, 8] was 6.25%, the “Change in hot flashes (frequency, severity): (Stable, Stable), % of patients” value [2, 8] was 37.50% and the “Change in hot flashes (frequency, severity): (Stable, Worse), % of patients” value [2, 8] was 6.25%. The “Change in hot flashes (frequency, severity): (Worse, Worse), % of patients” value [2, 8] was 12.50%, the “Change in hot flashes (frequency, severity): (Stable, Stable), % of patients” value [2, 9] was 77.78% and the “Change in hot flashes (frequency, severity): (Worse, Worse), % of patients” value [2, 9] was 22.22%. For the same molecule, the “SHBG, mean (of baseline)” value ([2]; Study 6, 250 mg cohort) was “Mean - 294%”, the “SHBG, median (of baseline)” value ([2]; Study 6, 250 mg cohort) was “Median - 297%” and the “Hot flashes improved, in men experiencing them on Day 1” value ([2]; Study 6, 250 mg cohort, 4/11) was 4/11 improved (36%). For the same molecule, the “Hot flashes stable, in men experiencing them on Day 1” value ([2]; Study 6, 250 mg cohort, 5/11) was 5/11 stable (45%), the “PSA response: subjects with ≧50% decrease in PSA” value ([2]; Study 6, 250 mg cohort, 6/20, Day 90) was 6/20 ≧ 50% (30%) and the “Bone turnover (CTX) decreased (improved), share of subjects” value ([2]; Study 6, 250 mg cohort, 13/16) was 13/16 (81%) are. The “Reported adverse event: Bilateral Breast Tenderness, grade” value ([2]; Study 6, 250 mg daily) was “Grade 1”, the “Reported adverse event: Diarrhea, grade” value ([2]; Study 6, 250 mg daily) was “Grade 1” and the “Reported adverse event: Gynecomastia, grade” value ([2]; Study 6, 250 mg daily) was “Grade 2”. The “Reported adverse event: Nipple Pain, grade” value ([2]; Study 6, 250 mg daily) was “Grade 1”, the “Reported adverse event: Nipple Tenderness, grade” value ([2]; Study 6, 250 mg daily) was “Grade 1” and the “Reported adverse event: Sensitivity of Mammila, grade” value ([2]; Study 6, 250 mg daily) was “Grade 1”.
